# Reference: PubChem BioAssay (NCI)
#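 These data come from cells grown in 96-well plates and exposed to compound for 48 hours at five concentrations. TGI denotes the concentration required for complete inhibition of growth.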
# How the values were obtained:
# Assay in all cases: DTP human tumour cell line panel, 48 h
# OVCAR-5 ovarian = system: OVCAR-5 ovarian
# ACHN renal = system: ACHN renal
# CCRF-CEM leukemia = system: CCRF-CEM leukemia
# OVCAR-8 ovarian = system: OVCAR-8 ovarian
# MALME-3M melanoma = system: MALME-3M melanoma
# HCT-15 colon = system: HCT-15 colon
# M19-MEL melanoma = system: M19-MEL melanoma
# UO-31 renal = system: UO-31 renal
# NCI-H226 lung = system: NCI-H226 lung
# MOLT-4 leukemia = system: MOLT-4 leukemia
# HT29 colon = system: HT29 colon
# M14 melanoma = system: M14 melanoma
# LOX IMVI melanoma = system: LOX IMVI melanoma
# EKVX NSCLC = system: EKVX NSCLC
# IGROV1 ovarian = system: IGROV1 ovarian
# SK-MEL-2 melanoma = system: SK-MEL-2 melanoma
# HOP-92 NSCLC = system: HOP-92 NSCLC
# MDA-N = system: MDA-N
# MDA-MB-231 breast = system: MDA-MB-231 breast
# NCI/ADR-RES ovarian = system: NCI/ADR-RES ovarian
Structure (SMILES),TGI (OVCAR-5 ovarian),TGI (ACHN renal),TGI (CCRF-CEM leukemia),TGI (OVCAR-8 ovarian),TGI (MALME-3M melanoma),TGI (HCT-15 colon),TGI (M19-MEL melanoma),TGI (UO-31 renal),TGI (NCI-H226 lung),TGI (MOLT-4 leukemia),TGI (HT29 colon),TGI (M14 melanoma),TGI (LOX IMVI melanoma),TGI (EKVX NSCLC),TGI (IGROV1 ovarian),TGI (SK-MEL-2 melanoma),TGI (HOP-92 NSCLC),TGI (MDA-N),TGI (MDA-MB-231 breast),TGI (NCI/ADR-RES ovarian)
Nc1ccc2ncc(Nc3ccc(F)cc3)nc2c1,> 100 µM,> 100 µM,> 100 µM,> 100 µM,> 100 µM,> 100 µM,> 100 µM,> 100 µM,> 100 µM,> 100 µM,> 100 µM,> 100 µM,> 100 µM,> 100 µM,,,,,,
Nc1ccc(C(=O)NN2C(=O)C(Cl)C2c2cc(Br)cc(Br)c2O)cc1 (configuration not stated),> 100 µM,61.9 µM,> 100 µM,> 100 µM,97.9 µM,> 100 µM,48.3 µM,22.4 µM,45.8 µM,> 100 µM,> 100 µM,28.2 µM,33.8 µM,59.5 µM,> 100 µM,> 100 µM,> 100 µM,,,
O=C(CSc1nnc(Cc2ccccc2)o1)Nc1ccccc1Cl,> 100 µM,> 100 µM,> 100 µM,> 100 µM,> 100 µM,> 100 µM,> 100 µM,> 100 µM,> 100 µM,> 100 µM,> 100 µM,> 100 µM,> 100 µM,,> 100 µM,> 100 µM,,,,
Cc1ccc(C(=O)OC(C)C)cc1N=NN(C)C,> 100 µM,> 100 µM,> 100 µM,> 100 µM,> 100 µM,> 100 µM,> 100 µM,> 100 µM,,> 100 µM,> 100 µM,> 100 µM,> 100 µM,> 100 µM,> 100 µM,> 100 µM,> 100 µM,> 100 µM,> 100 µM,> 100 µM
O=[N+]([O-])c1cc2c(cc1O)[nH]c1cccc([N+](=O)[O-])c12,> 100 µM,> 100 µM,> 100 µM,> 100 µM,> 100 µM,> 100 µM,> 100 µM,> 100 µM,> 100 µM,> 100 µM,> 100 µM,> 100 µM,> 100 µM,,,> 100 µM,,,,
OC12CC3c4ccccc4NC3C3Oc4cccc5c4C31CCN(CC1CC1)C2C5 (configuration not stated),46.3 µM,34.5 µM,71 µM,32.3 µM,34.9 µM,35.1 µM,,30.4 µM,74.9 µM,73.1 µM,34.2 µM,33.8 µM,30 µM,87.7 µM,29.8 µM,35 µM,24.5 µM,35.1 µM,32.4 µM,47.4 µM
N#C/C(=C\c1ccc(F)cc1)c1nc2ccccc2c(=O)[nH]1,> 100 µM,> 100 µM,> 100 µM,> 100 µM,> 100 µM,> 100 µM,,> 100 µM,> 100 µM,> 100 µM,> 100 µM,> 100 µM,> 100 µM,> 100 µM,> 100 µM,> 100 µM,> 100 µM,> 100 µM,> 100 µM,> 100 µM
Cc1ccc(/C=C/C(=O)C(C)C)cc1,53.7 µM,> 100 µM,67.3 µM,> 100 µM,,,> 100 µM,> 100 µM,,76.9 µM,> 100 µM,> 100 µM,,> 100 µM,> 100 µM,> 100 µM,> 100 µM,,,
Cc1ccc(/C=N/Nc2cc(C)c3ccccc3n2)s1,37.4 µM,45.4 µM,> 100 µM,> 100 µM,22.4 µM,25.6 µM,,> 100 µM,52.7 µM,45.1 µM,18.7 µM,42.8 µM,78.9 µM,27 µM,24.9 µM,> 100 µM,93.8 µM,37.6 µM,19.9 µM,90.6 µM
COc1ccc([C@@H]2CC(=O)NCCCNCCCCNCCCN2)cc1,> 100 µM,> 100 µM,> 100 µM,> 100 µM,> 100 µM,> 100 µM,> 100 µM,> 100 µM,> 100 µM,> 100 µM,> 100 µM,> 100 µM,,> 100 µM,> 100 µM,> 100 µM,> 100 µM,,,
COc1ccc(C2C3=C(COC3=O)OC(C)(C)Oc3cc4c(cc32)OCO4)cc1 (configuration not stated),> 100 µM,> 100 µM,> 100 µM,> 100 µM,> 100 µM,> 100 µM,,98.7 µM,99.2 µM,> 83.8 µM,> 100 µM,> 100 µM,> 86.8 µM,> 92.7 µM,> 100 µM,> 100 µM,> 65.8 µM,8.97 µM,97.9 µM,> 81.6 µM
Fc1ccc2c(c1)SC1Oc3ccccc3-c3c1c-2nn3-c1ccccc1 (configuration not stated),> 100 µM,> 100 µM,> 100 µM,> 100 µM,> 100 µM,,> 100 µM,> 100 µM,,> 100 µM,> 100 µM,,> 100 µM,> 100 µM,> 100 µM,> 100 µM,> 100 µM,,,
COc1cc2c(cc1OC)C(=O)Cc1ccc3c(c1CNCC2)OCO3,> 100 µM,> 100 µM,> 100 µM,> 100 µM,> 100 µM,> 100 µM,> 100 µM,> 100 µM,,> 100 µM,> 100 µM,> 100 µM,,> 100 µM,> 100 µM,> 100 µM,,,,
COc1cc(C(C#N)NNC(=O)Cc2ccccc2)cc(OC)c1OC (configuration not stated),> 100 µM,> 100 µM,,> 100 µM,> 100 µM,> 100 µM,> 100 µM,> 100 µM,> 100 µM,> 100 µM,> 100 µM,> 100 µM,> 100 µM,,> 100 µM,> 100 µM,> 100 µM,,,
